# Test results published in patent US20100120662A1, “Glucose uptake modulator and method for treating diabetes or diabetic complications” (POSTECH Foundation, priority 2005, published 2010).
# Ends that are not written are not given here.
# Columns and labels:
# 3T3-L1 adipocytes = experiment: [14C] 2-deoxy-D-glucose uptake in 3T3-L1 adipocytes; type: cell-based; conditions: for stimulation of glucose uptake: equimolar 20 μM, 10 min; for effect of pretreatment on LPC-stimulated glucose uptake: then 20 μM LPC 10 min; for time and dose dependence of glucose uptake: various concentrations
# Procedure: Cell culture: 3T3-L1 fibroblasts were grown to confluence in DMEM containing a high glucose concentration, 10% fetal bovine serum, 50 U of penicillin per ml, and 50 ug of streptomycin per ml and maintained in a 5% CO2 humidified atmosphere at 37° C. 3T3-L1 was induced to differentiate into adipocytes, as described previously (van den Berghe, N., et al., Mol Cell Biol 14, pp. 2372-2377, 1994).
# Glucose uptake measurement. For measuring glucose uptake in 3T3-L1 adipocytes, cells were grown in serum-free DMEM for 16 h and then incubated in the absence or presence of insulin or lysophospholipids for the indicated times at 37° C. Uptake was measured by adding 1 μCi of [^14C] 2-deoxy-D-glucose and 3 mM 2-deoxy-D-glucose. After 10 min, the assay was terminated by two quick washes with ice-cold PBS. Cells were lysed in 0:5 ml of lysis buffer containing 0.5 N NaOH and 0.1% SDS. The cell lysates were used for liquid scintillation counting and nonspecific uptake was assayed in the presence of 10 μM cytochalasin B (van den Berghe, N., et al., Mol Cell Biol 14, pp. 2372-2377, 1994).
# FIG. 2A to 2D show the effects of LPC on the glucose uptake in 3T3-L1 adipocytes. […] After these treatments, [^14C] 2-deoxy-D-glucose uptake was measured for 10 min as described in Material Methods. […] FIGS. 2C and 2D show relative [^14C] 2-deoxy-D-glucose uptake in 3T3-L1 adipocytes incubated in the absence (control) or presence of equimolar concentrations (20 μM) of myristoyl lysophosphatidylcholine (14:0 LPC), palmytoyl lysophosphatidylcholine (16:0 LPC), stearoyl lysophosphatidylcholine (18:0 LPC), palmytoyl lysophsophatidylethanolamine (16:0 LPE), palmytoyl lyso-phosphatidylinositol (16:0 LPI), palmytoyl lysophosphatidylglycerol (16:0 LPG) for 10 min. Values are mean±SE of three independent experiments performed in triplicate. *P<0.05 vs. basal.
# male ICR mice [1] = experiment: Acute blood glucose lowering in normal ICR mice after intravenous lysophospholipid; type: in vivo, mouse; conditions: for level of blood glucose in normal mice: intravenous, 0 to 120 min after dosing
# IRS1 and AKT = IRS1 and AKT phosphorylation in 3T3-L1 adipocytes (immunoblot); type: cell-based
# Procedure: Immunoblotting. For preparing total cell lysates, 3T3-L1 adipocytes were washed with Ca^2+/Mg^2+-free PBS and then lysed in the lysis buffer (50 mM HEPES, pH 7.2, 150 mM NaCl, 50 mM NaF, 1 mM Na3VO4, 10% glycerol, 1% Triton X-100). The lysates were centrifuged at 15,000 rpm for 15 min at 4° C. The proteins were denatured by boiling in laemmli sample buffer for 5 min at 95° C., separated by SDS-PAGE. SDS-gel was transferred to nitrocellulose membrane using Hoefer wet transfer system. Membranes were blocked in TTBS (20 mM Tris-HCl, pH 7.6, 150 mM NaCl, 0.05% Tween 20) containing 5% skimmed milk powder for 30 min and then incubated with antibodies for 3 hours. After washing membranes several times with TTBS, the blots were incubated with HRP (Horseradish peroxidase)-conjugated goat anti-rabbit for 1 hour. The blots were washed with TTBS and developed by ECL.
# GLUT4 = GLUT4 translocation to the plasma membrane in 3T3-L1 adipocytes; type: cell-based; conditions: 100 nM insulin, 10 min
# Procedure: Membrane fractionation of adipocytes. For obtaining total membranes (TM) from 3T3-L1 adipocytes, cells were collected into 10 ml of ice-cold HES buffer (250 mM sucrose, 1 mM EDTA, 1 mM phenylmethylsulfonyl fluoride [PMSF], 1 μM pepstatin, 1 μM aprotinin, 1 μM leupeptin, and 20 mM HEPES, pH 7.4) and subsequently homogenized with 30 strokes in a glass Dounce homogenizer at 4° C. After centrifugation at 1,000 g for 5 min at 4° C. to remove unbroken cells, the supernatant was then centrifugated at 212,000 g for 90 min at 4° C. to yield a pellet of total cellular membranes. To obtain the plasma membrane (PM) subcellular fraction from 3T3-L1 adipocytes, differential ultracentrifugation was used as described previously (Perrini, S., et al., Diabetes 53, pp. 41-52, 2004).
# Immunoblotting. For preparing total cell lysates, 3T3-L1 adipocytes were washed with Ca^2+/Mg^2+-free PBS and then lysed in the lysis buffer (50 mM HEPES, pH 7.2, 150 mM NaCl, 50 mM NaF, 1 mM Na3VO4, 10% glycerol, 1% Triton X-100). The lysates were centrifuged at 15,000 rpm for 15 min at 4° C. […]
# FIGS. 3A and 3B show LPC stimulates GLUT4 translocation in 3T3-L1 adipocytes. […] In each experiment, the relative increase or decrease in the integrated density value (IDV) of GLUT4 after stimulation with compounds is calculated. B) Quantitation of relative increases is depicted. […]
# male ICR mice [2] = experiment: Serum insulin level in mice after single intravenous injection; type: in vivo, mouse
# Procedure: (§1) Animals. Male ICR mice were purchased from hyochang science (ROK). C57BLKSJ-db/db mice were purchased from SLC (Japan). After intravenous injection of LPC, blood glucose was measured regularly with a portable glucose meter (Gluco-Dr, ROK) after tail snipping. For measurement of serum insulin, blood samples of mice were determined with the insulin-RIA Kit (LINCO, Missouri). Insulin deficient mice were induced in male ICR mice by two consecutive daily intraperitoneal injection of STZ (200 mg/kg) dissolved in sodium citrate (pH 5.5). On the third day after the last STZ injection, acute glucose lowering effect was analyzed after intravenous injection of vehicle, LPC or insulin as described above.
# (§2) Eight-week-old male mice were intravenously injected with PBS, insulin, LPC, or LPE. Blood glucose was monitored after dosing (0 to 120 min). […] All animals had free access to water. Animal care was in accordance with institutional guidelines. All data are shown as means±SE (n=5-6).*P<0.05.
# [3] = system: STZ-treated insulin deficient ICR male mice; experiment: Acute glucose lowering in streptozotocin (STZ)-treated insulin deficient ICR mice; type: in vivo, mouse; conditions: LPS injected, dose not given
# Procedure: as §1, §2
# insulin receptor (IR) = experiment: IR autophosphorylation in hIRcB cells; type: cell-based, human; conditions: hIRcB cells
# Procedure: FIG. 12A shown a comparison of insulin sensitizing effect among CRF family which was obtained by incubating cells with 1 μM CRF family and/or 2 nM insulin or with medium alone for 1 min. […] FIG. 12B was obtained by incubating cells with 2 nM insulin and variant dose of UCN (from 2 nM to 1 μM) for 1 min. FIG. 12C was obtained by incubating cells 100 nM UCN and variant dose of insulin for 1 min. Phosphorlyation of IR was assessed by western blotting with anti-pTyr antibodies. FIG. 13D was obtained by incubating cells with 100 nM UCN and/or 10 nM insulin for 0, 2, 10, 30, and 60 min, and then assessing the phosphorlyation of IR by western blotting with anti-pIR antibodies. Quantization of IR autophosphorylation was measured with image gauge software (Fuji film). The values are the mean±S.E. for three experiments. *, P<0.05
# hIRcB cells were maintained in DMEM, supplemented with 10% (v/v) FBS. The cells were grown at 37° C. in a humidified atmosphere of 5% CO2 and 95% air.
# After treatment of ligands as indicated time and dose, the cells were washed with cold PBS and lysed with lysis buffer (50 mM HEPES pH 7.5, 150 mM NaCl, 1%
# Triton X-100, 1 mM EDTA, 10% glycerol) containing protease inhibitors (0.5 mM PMSF, 1 μg/ml leupeptin and 5 μg/ml aprotinin) and phosphatase inhibitors (30 mM NaF, 1 mM Na3VO4 and 30 mM Na4O7P2). The cell lysates were incubated for 1 hr at 4° C. After centrifugation (14,000×g for 15 min), equal amounts of soluble extract were incubated, for 4 hrs, with 5 μg of anti-IR antibody and 30 μl of resin volume of immobilized protein A. For gel electrophoresis, the precipitates were dissolved in Laemmli sample buffer. The sample was separated by SDS-PAGE and transferred to a nitrocellulose membrane (Schleicher and Schuell, BA85). Blocking was performed with TTBS buffer (10 mM Tris/HCl, pH 7.5, 150 mM NaCl, and 0.05% Tween 20) containing 5% skimmed milk powder. The membrane was probed with primary for 3 hrs at room temperature. Subsequently the immunoblot was washed and incubated with horseradish peroxidase-linked secondary antibody for 1 hr at room temperature, rinsed four times in TTBS buffer, and developed with horseradish peroxidase-dependent chemiluminescence reagents (Amersham International, United Kingdom).
# [4] = 3T3-L1 adipocytes, 10 min incubation
molecule,measurement,setting,value
"CCCCCCCCCCCCCCCCCC(=O)OCC(O)COP(=O)([O-])OCC[N+](C)(C)C (stereo not shown) [stearoyl LPC, stearoyl lysophosphatidylcholine, reference compound]",stimulation of glucose uptake,3T3-L1 adipocytes,did not stimulate glucose uptake
CCCCCCCCCCCCC/C=C/[C@@H](O)[C@@H](N)COP(=O)(O)O [S1P],level of blood glucose in normal mice,"male ICR mice [1]; LPA study (FIG. 11A, 11B)",did not lower the blood glucose level in normal mice
same,level of blood glucose in normal mice,"male ICR mice [1]; LPS study (FIG. 7A, 7B)",did not lower the blood glucose level in normal mice
insulin [reference compound],phosphorylation of IRS1 and AKT,IRS1 and AKT; 10 nM insulin,augmentation of IRS1 and AKT phosphorylation
same,GLUT4 translocation,GLUT4,stimulate GLUT4 translocation
"CC(=O)c1c(O)c(C)c(O)c(Cc2c(O)c3c(c(C(=O)/C=C/c4ccccc4)c2O)OC(C)(C)C=C3)c1O [rottlerin, reference compound]",effect of pretreatment on LPC-stimulated glucose uptake,3T3-L1 adipocytes; 10 μM rottlerin for 30 min,completely inhibited
lysophosphatidic acid [LPA],Akt phosphorylation,IRS1 and AKT; LPA treatment of 3T3-L1 adipocytes,stimulated Akt phosphorylation
same,incubation time at which glucose uptake was maximally increased,"3T3-L1 adipocytes; 20 μM, 0 to 20 min",10 min
same,concentration of initial statistically significant effect on glucose uptake,3T3-L1 adipocytes; [4],1 µM
same,concentration of maximal effect on glucose uptake,3T3-L1 adipocytes; [4],20 µM
same,time and dose dependence of glucose uptake,3T3-L1 adipocytes; 3T3-L1 adipocytes,time- and dose-dependent increase in glucose uptake
same,Gαi dependence of glucose uptake stimulation,3T3-L1 adipocytes; Gαi inhibitor pertussis toxin,stimulates glucose uptake via to Gαi activation
same,PI3-kinase dependence of glucose uptake stimulation,3T3-L1 adipocytes; LY294002 pretreatment,dependent on PI3-kinase activation
same,change in blood insulin levels,male ICR mice [2],not due to changes in blood insulin levels
same,level of blood glucose in normal mice,"male ICR mice [1]; LPA study (FIG. 11A, 11B)",lowered the level of blood glucose in normal mice dose-dependently
"CCCCCCCCCCCCCC(=O)OCC(O)COP(=O)([O-])OCC[N+](C)(C)C (stereo not shown) [myristoyl LPC, myristoyl lysophosphatidylcholine]",stimulation of glucose uptake,3T3-L1 adipocytes,stimulated glucose uptake
lysophosphatidylserine [LPS],blood glucose concentrations in STZ-treated insulin deficient mice,[3],significantly reduced blood glucose concentrations
same,time and dose dependence of glucose uptake,3T3-L1 adipocytes; 3T3-L1 adipocytes,stimulate glucose uptake with dose dependent manner
same,stimulation of glucose uptake,3T3-L1 adipocytes,specifically stimulated glucose uptake
same,change in blood insulin levels,male ICR mice [2],not due to changes in blood insulin levels
same,level of blood glucose in normal mice,"male ICR mice [1]; LPS study (FIG. 7A, 7B)",lowered the level of blood glucose in normal mice dose-dependently
"CRF: Corticotrophin releasing factor (CRF), synthesized from Anygen (SEEPPISLDLTFHLLREVLEMARAEQLAQQAHSNRKLMEII; ends and bridges not checked; UniProt P06850 154-194, looked up) [reference compound]",insulin-mediated IR phosphorylation,"insulin receptor (IR); 1 μM CRF family peptide with 2 nM insulin, 1 min",potentate insulin-mediated IR phosphorylation
same,IR phosphorylation by peptide alone,insulin receptor (IR); without insulin,no effect on IR phosphorylation
"CCCCCCCCCCCCCCCC(=O)OC[C@@H](O)COP(=O)(O)OCCN [palmytoyl LPE, palmytoyl lysophsophatidylethanolamine]",stimulation of glucose uptake,3T3-L1 adipocytes,did not stimulate glucose uptake
same,level of blood glucose in normal mice,"male ICR mice [1]; LPA study (FIG. 11A, 11B)",did not lower the blood glucose level in normal mice
same,level of blood glucose in normal mice,"male ICR mice [1]; LPS study (FIG. 7A, 7B)",did not lower the blood glucose level in normal mice
"CCCCCCCCCCCCCCCC(=O)OCC(O)COP(=O)(O)OC1C(O)C(O)C(O)C(O)C1O (stereo not shown) [palmytoyl LPI, palmytoyl lyso-phosphatidylinositol, reference compound]",stimulation of glucose uptake,3T3-L1 adipocytes,did not stimulate glucose uptake
"Cc1noc(-c2ccc(CSCCC(=O)O)cc2)c1NC(=O)OC(C)c1ccccc1Cl (stereo not shown) [Ki16425, reference compound]",effect of pretreatment on LPA-stimulated glucose uptake,3T3-L1 adipocytes; Ki16425 (LPA receptor antagonist) pretreatment,completely inhibited
same,effect on the glucose lowering effect by LPA,male ICR mice [1]; Ki16425 injected prior to administration of LPA,inhibited
"CCCCCCCCCCCCCCCC(=O)OC[C@@H](O)COP(=O)(O)OCC(O)CO (stereo partly shown) [palmytoyl LPG, palmytoyl lysophosphatidylglycerol, reference compound]",stimulation of glucose uptake,3T3-L1 adipocytes,did not stimulate glucose uptake
"Cn1c2ccccc2c2c3c(c4c5ccccc5n(CCC#N)c4c21)CNC3=O [Gö6976, reference compound]",effect of pretreatment on LPC-stimulated glucose uptake,3T3-L1 adipocytes; 2 μM Gö6976 for 30 min,did not alter LPC stimulation of glucose uptake
